Values quoted from earlier work, collected in US20060241549A1, “Apparatus and method for precise ozone/oxygen delivery applied to the treatment of dermatological conditions, including gas gangrene, and related disorders” (priority 2005, published 2006).

Settings: as a gas, at room temperature

O=[O+][O-] [ozone, Ozone]
half-life: approximately 50 minutes
